Experimental findings from US20250099420A1, “SMALL MOLECULE MODULATORS OF GPR139 COMPLEX” (University of Florida Research Foundation, Incorporated, priority 2022, published 2025) are described below.

Structures are written as SMILES.

The test system of one data set is parental HEK cells. Nature of the data set: HEK parental Antagonist Counterscreen Assay (non-transfected cells, acetylcholine control). Type of data set: cell-based. The note with it: for EC50: Homo sapiens, HEK293, acetylcholine as control, scientific notation, molarity. For orientation: Counterscreens check selectivity or assay interference.
Data set [1] deals with T1, GPR139 (Homo sapiens, UniProt Q6DWJ6).
T1 sequence (Q6DWJ6 1-353): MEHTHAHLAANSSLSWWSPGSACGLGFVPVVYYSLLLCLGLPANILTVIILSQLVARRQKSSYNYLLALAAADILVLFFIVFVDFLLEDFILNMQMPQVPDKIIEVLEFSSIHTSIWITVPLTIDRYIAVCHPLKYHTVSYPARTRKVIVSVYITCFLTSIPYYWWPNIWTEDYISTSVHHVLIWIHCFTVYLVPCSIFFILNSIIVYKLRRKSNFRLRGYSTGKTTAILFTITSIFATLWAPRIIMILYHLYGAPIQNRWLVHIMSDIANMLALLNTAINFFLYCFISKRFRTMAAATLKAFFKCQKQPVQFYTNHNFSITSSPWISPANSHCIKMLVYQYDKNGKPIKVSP
Briefly: GPR139 Agonist titration / agonist counterscreen assay (calcium detection, HEK-GPR139 cells). The note with it: agonist counterscreen of the antagonists; for EC50: scientific notation, molarity, read-out: GRP139 Agonist activity EC50. Type of data set: cell-based. Also noted: expressed in transfected cells; host or cells: HEK Aequorin cells, Maxcyte transient transfection. The procedure: GPR activity was assessed using a calcium detection assay. […] Negative control samples were treated with DMSO. […] Intracellular calcium was measured using Calcium 5.

Data set [2] deals with T1, GPR139. Nature of the data set: GPR139 Antagonist titration assay (calcium detection, HEK-GPR139 cells, vs EC80 of S-JNJ-63533054). The note with it: for GPR139 Antagonist Activity Averaged Max % Response (±St. Dev.): activity relative to known control; for GPR139 Antagonist Activity Lipophilic Efficiency (logD): based on logD; for GPR139 Antagonist Activity Lipophilic Efficiency (logP): based on logP; for GPR139 Antagonist Activity Hill Slope: fitted dose-response curve.

On to `N#CCC(=O)c1ccccc1Oc1ccc(F)cc1` [SR-01000308363], for which, in the data set with parental HEK cells, the “HEK antagonist activity Averaged Max % Response (±St. Dev.)” value is on record as 14.98 ± 11.31% and the EC50 (usually the concentration at which the effect is half-maximal) is > 14.3 µM. At GPR139 [1], the “GRP139 Agonist activity Averaged Max % Response (±St. Dev.)” value worked out at 25.24 ± 7.47% and the EC50 is > 14.3 µM. For the same compound, at GPR139 [2], the 50% effective concentration (EC50) is 5.9 µM, the “GPR139 Antagonist Activity Ligand Efficiency” value is given as 0.39, the “GPR139 Antagonist Activity Averaged Max % Response (±St. Dev.)” value is recorded as 70.81 ± 7.08% and the “GPR139 Antagonist Activity Lipophilic Efficiency (logD)” value worked out at 2.11. In addition, at GPR139 [2], the “GPR139 Antagonist Activity Lipophilic Efficiency (logP)” value is reported as 2.11 and the “GPR139 Antagonist Activity Hill Slope” value was 1.05.
Take `CCn1cc(Cl)c(C(=O)OCC23CCC4c5ccccc5OC(C)(CC2C)C4C3C)n1` (stereo not shown) [SR-01000479575]: in the data set with parental HEK cells, the “HEK antagonist activity Averaged Max % Response (±St. Dev.)” value is recorded as 11.60 ± 7.12% and the EC50 was > 7.6 µM. In addition, the “GRP139 Agonist activity Averaged Max % Response (±St. Dev.)” value at GPR139 [1] is given as −2.2E+0 ± 2.25 ^ %. At GPR139 [2], the “GPR139 Antagonist Activity Ligand Efficiency” value worked out at 0.24, the “GPR139 Antagonist Activity Averaged Max % Response (±St. Dev.)” value is 58.09 ± 4.56%, the “GPR139 Antagonist Activity Lipophilic Efficiency (logD)” value is 0.55 and the “GPR139 Antagonist Activity Lipophilic Efficiency (logP)” value amounted to 0.55. Also, the “GPR139 Antagonist Activity Hill Slope” value at GPR139 [2] is listed as 2.37.
For `CC1=NN(Cc2ccc(Cl)cc2Cl)C(=O)C1` [SR-01000043246], in the data set on parental HEK cells, the “HEK antagonist activity Averaged Max % Response (±St. Dev.)” value is 6.06 ± 11.65% and the EC50 was > 15.3 µM. In addition, on GPR139 [1], the “GRP139 Agonist activity Averaged Max % Response (±St. Dev.)” value was found to be 21.98 ± 2.69% and the EC50 is > 15.3 µM. At GPR139 [2], the EC50 worked out at 3.9 µM, the “GPR139 Antagonist Activity Ligand Efficiency” value is listed as 0.47, the “GPR139 Antagonist Activity Averaged Max % Response (±St. Dev.)” value was 80.83 ± 4.99% and the “GPR139 Antagonist Activity Lipophilic Efficiency (logD)” value is listed as 2.61. Further, at GPR139 [2], the “GPR139 Antagonist Activity Lipophilic Efficiency (logP)” value turned out to be 2.61 and the “GPR139 Antagonist Activity Hill Slope” value is recorded as 1.01.
As for `CC(=O)N1N=C(c2ccc(C)cc2)CC1c1ccccc1F` (stereo not shown) [SR-01000429850], in the data set with parental HEK cells, the “HEK antagonist activity Averaged Max % Response (±St. Dev.)” value is recorded as −3.2E+0 ± 5.20 ^ % and the EC50 is > 15.5 µM. At GPR139 [1], the “GRP139 Agonist activity Averaged Max % Response (±St. Dev.)” value is 4.88 ± 6.79%. For the same compound, on GPR139 [2], the “GPR139 Antagonist Activity Ligand Efficiency” value amounted to 0.31, the “GPR139 Antagonist Activity Averaged Max % Response (±St. Dev.)” value turned out to be 48.35 ± 1.75%, the “GPR139 Antagonist Activity Lipophilic Efficiency (logD)” value is recorded as 1.00 and the “GPR139 Antagonist Activity Lipophilic Efficiency (logP)” value was 1.00.
As for `Cc1cc(C)cc(-n2cnc3cc(C(=O)NCc4ccccc4Cl)ccc32)c1` [SR-01000579741], in the data set on parental HEK cells, the “HEK antagonist activity Averaged Max % Response (±St. Dev.)” value came out at 13.52 ± 10.95% and the EC50 is > 13 µM. Besides, on GPR139 [1], the “GRP139 Agonist activity Averaged Max % Response (±St. Dev.)” value was 21.81 ± 2.59% and the EC50 is > 13 µM. Besides, at GPR139 [2], the EC50 stood at 3.1 µM, the “GPR139 Antagonist Activity Ligand Efficiency” value was found to be 0.28, the “GPR139 Antagonist Activity Averaged Max % Response (±St. Dev.)” value turned out to be 81.29 ± 5.44% and the “GPR139 Antagonist Activity Lipophilic Efficiency (logD)” value is reported as −62.7E−3. Also, on GPR139 [2], the “GPR139 Antagonist Activity Lipophilic Efficiency (logP)” value is given as −63.1E−3 and the “GPR139 Antagonist Activity Hill Slope” value worked out at 2.25.
In the case of `O=C(NCCC1CCCCC1)N1c2ccccc2Sc2ccccc21` [SR-01000452455], in the data set with parental HEK cells, the “HEK antagonist activity Averaged Max % Response (±St. Dev.)” value is 0.92 ± 5.75% and the EC50 was > 12.5 µM. Besides, on GPR139 [1], the “GRP139 Agonist activity Averaged Max % Response (±St. Dev.)” value is given as 15.11 ± 5.37% and the EC50 was > 12.5 µM. On GPR139 [2], the EC50 stood at 3.6 µM, the “GPR139 Antagonist Activity Ligand Efficiency” value is 0.32, the “GPR139 Antagonist Activity Averaged Max % Response (±St. Dev.)” value is on record as 87.35 ± 5.76% and the “GPR139 Antagonist Activity Lipophilic Efficiency (logD)” value is listed as 0.49. On GPR139 [2], the “GPR139 Antagonist Activity Lipophilic Efficiency (logP)” value turned out to be 0.49 and the “GPR139 Antagonist Activity Hill Slope” value turned out to be 1.28.
